Laboratory results published in PMC5841658, “Anti-cancer characteristics and ototoxicity of platinum(II) amine complexes with only one leaving ligand” (PLoS ONE, 2018).
Several values for one entry are separate records, joined by “and”; a condition that tells them apart may be missing. Equal values may be shown once.

Assays:
[1] = system: zebrafish saccule hair cells; test: Hair cell quantification, saccule; assay type: in vivo, Danio rerio; conditions: 25 mg/kg i.p., 48 hours; for effect on hair cell density in four regions of the saccule compared to vehicle: 5, 25, 50, 75% regions
Protocol: (§1) Zebrafish (Danio rerio) were purchased from a commercial supplier (Segrest Farms, Gibsonton, FL) and maintained in the animal facility of Western Kentucky University according to a protocol approved by the Institutional Animal Care and Use Committee. All zebrafish used in this study were a mix of male and female adult animals at least 6 months of age and were maintained according to standard methods.
(§2) After injection, fish were returned to holding tanks for either 24 or 48 hours and then subjected to hearing tests followed by hair cell quantification analysis.
Hair cell counts were performed from specific regions of the zebrafish saccule and utricle using established procedures. […] Prior to dissection, heads were rinsed three times for 10 minutes each at room temperature in phosphate buffer (pH 7.4, LabChem, Pittsburgh, PA) and the inner ear epithelia (saccule and utricle) were then carefully dissected out and trimmed. […] Tissue samples were then placed on glass slides and nuclei were labelled with Prolong Gold antifade reagent (4’,6-diamidino-2-phenylindole [DAPI], Life Technologies, Carlsbad, CA) and a cover-slip was placed over the samples for microscopy.
Saccule and utricle samples were viewed through the FITC filter of a Zeiss Axioplan2 epifluorescence microscope (Carl Zeiss, Jena, Germany) at 20X magnification and were then photographed using an AxioCam MRm camera. Cell counts were made from four regions of the saccule (5%, 25%, 50%, 75%) along the rostral-caudal length of the organ by placing a 50 μm x 50 μm box at each location and using the microscope cell counter feature. In the utricular samples, cell counts were made from three equidistant 50 μm x 50 μm boxes in both the extrastriolar and striolar regions.
(§3) GraphPad Prism v6 (La Jolla, CA) was used for all statistical analysis. Nuclear fraction platinum uptake as a total percent of combined nuclear and cytosolic uptake was analyzed using a one-way ANOVA (Brown-Forsyth test; p ≤ 0.05). IC50 values were calculated in Prism using the sigmoidal, 4PL, x is log(concentration) analysis feature or were calculated from Prism derived values using the equation y = mx + b. MTT assay standard deviation values were calculated using ED50plus v1.0 online software. AEP threshold data were analyzed by two-way ANOVA (Dunnett’s multiple comparisons test; p ≤ 0.05) and hair cell quantification data by two-way ANOVA (Tukey’s multiple comparisons test; p ≤ 0.05). AEP temporary threshold shifts (TTS) were calculated by subtracting the mean vehicle threshold for each frequency from each treatment threshold. TTS data were averaged across frequencies for each treatment and were analyzed by one-way ANOVA (Tukey’s multiple comparisons test; p ≤ 0.05).

[2] = system: U-138 MG (HTB-16) glioblastoma cancer cell line; test: MTT cellular viability assay, HTB16; assay type: cell-based; conditions: HTB16 (glioma), 72 hours, ± standard deviation
Protocol: (§4) Cell lines were obtained from American Type Culture Collection (ATCC, Manassas, VA). […] Caco-2 (ATCC: HTB-37) colorectal cancer was grown in EMEM with 20% FBS and 1% penicillin/streptomycin. All cell lines were incubated at 37°C in 5% CO2 with passaging every 4–7 days. Cell culture media and supplements were obtained from ATCC, Atlanta Biologicals (Flowery Branch, GA), Mediatech (Tewksbury, MA), Fisher Scientific (Waltham, MA), Gibco (Gaithersburg, MD) and Sigma-Aldrich.
(§5) The MTT (3-(4,5-dimethylthiazol-2-yl)-2,5-diphenyltetrazolium bromide) cellular viability assay was performed in all three cancer cell lines and the non-cancer cell line. Following a protocol adapted from, cells were seeded at 5,000 cells per well in 96-well plates and incubated at 37°C in 5% CO2 in F-12K Medium or EMEM with FBS supplementation and 1% penicillin/streptomycin for 24 hours. Then, wells were treated in replicates of six according to a concentration series (500, 50, 5, 0.5, 0.05 μM) of specific platinum complexes for 72 hours. A negative control (media only), positive control (Triton X-100) and series of blanks were simultaneously performed. The MTT assay was run for 2 hours, then well contents were rapidly evacuated out and all wells were treated with MTT solubilization solution [10% Triton X-100 in acidic (0.1N HCl) isopropanol] for 15 minutes before the plates were read using a BioTek Synergy HT microplate plate reader (570 nm and 690 nm absorbance wavelengths). Reagents, cell culture media and supplements were obtained from ATCC, Atlanta Biologicals, Mediatech, Fisher Scientific, Gibco and Sigma-Aldrich.
as §3

[3] = system: IMR-90 lung fibroblast control cell line; test: MTT cellular viability assay, IMR90; assay type: cell-based; conditions: IMR90 (fibroblast, non-cancer), 72 hours, ± standard deviation
Protocol: as §4, §5, §3

[4] = system: zebrafish hearing thresholds; test: Auditory evoked potential (AEP) testing in zebrafish inner ear model; assay type: in vivo, Danio rerio; conditions: 25 mg/kg i.p.; for AEP hearing threshold, significance of pairwise comparison against vehicle / AEP hearing threshold, significance of pairwise comparison against cisplatin: 48 h; for mean (± S.E.) temporary threshold shift (TTS), averaged across frequencies: 48 hours, vehicle threshold subtracted
Protocol: as §1, §2
Auditory evoked potential (AEP) testing was performed on individual fish according to standard protocols. […] After harness placement was complete, three 27 gauge stainless steel electrodes (Rochester Electro-Medical, Inc., Lutz, FL) were inserted approximately 2 mm subdermally to record AEPs. A reference electrode was inserted into the medial dorsal surface of the head, a recording electrode directly over the brainstem and a ground electrode in the tail musculature. Sound stimuli (tone pips) were presented to each fish at 8 frequencies (100, 250, 400, 600, 800, 1000, 1500 and 3000 Hz) and AEP waveforms were collected using a TDT System III physiology apparatus (Tucker-Davis Technologies Inc., Alachua, FL) running SigGen and BioSig software. Auditory stimuli were passed through a P1000 power amplifier (Hafler, Port Coquitlam, BC) and presented with a University Sound UW-30 underwater speaker (Electro-Voice, Fairport, NY). Sound pressure levels were confirmed using a Type 10CT hydrophone (G.R.A.S., Holte, Denmark) placed adjacent to the mesh harness. Auditory thresholds were determined in 5 dB increments by visual inspection of AEP waveforms.
as §3

[5] = system: A549 lung cancer cell line; test: MTT cellular viability assay, A549; assay type: cell-based; conditions: 72 hours, ± standard deviation
Protocol: as §4, §5, §3

[6] = system: Caco-2 colorectal cancer cell line; test: MTT cellular viability assay, Caco2; assay type: cell-based; conditions: 72 hours, ± standard deviation
Protocol: as §4, §5, §3

5'-GMP = test: Kinetic 5'-GMP assay (1H NMR, rate of reaction of platinum complex with 5'-GMP); assay type: biochemical; conditions: D2O, pH 7, 25°C; for Rate constant for the reaction of 5'-GMP with the platinum(II) complex: excess platinum, fitted first order in each reactant
Protocol: The reaction of each platinum compound with 5'-GMP (Acros) was monitored using ^1H NMR spectroscopy to observe the disappearance of the H8 signal of the unreacted 5'-GMP at ≈8 ppm and the appearance of a product signal ≈0.5–1.0 ppm downfield of the unreacted 5'-GMP. The reaction was conducted with excess platinum compound present in each case. A 10 mM solution of 5'-GMP and a 10–20 mM solution of the platinum(II) compound were prepared separately in D2O. The pH (uncorrected for the effects of deuterium) of each solution was adjusted to 7, and the samples were equilibrated to 25°C in a water bath. Aliquots of the two solutions were combined and placed in an NMR tube; typically, the final concentrations of platinum was 5–18 mM and the concentration of 5'-GMP was 1 mM (except for the [Pt(dien)Cl]^+ reaction, where it was 0.5 mM). Samples were maintained at 25°C throughout the NMR experiment. The H8 resonances were integrated and the data was fitted to an equation that was first order in each reactant using DynaFit to determine rate constants. At least two runs were conducted for each platinum compound using fresh samples.

SMILES | effect on hair cell density in four regions of the saccule compared to vehicle [1] | IC50 [2] [µM] | IC50 [3] [µM] | AEP hearing threshold, significance of pairwise comparison against vehicle ([4]; 100 Hz) | AEP hearing threshold, significance of pairwise comparison against vehicle ([4]; 250 Hz) | AEP hearing threshold, significance of pairwise comparison against vehicle ([4]; 400 Hz) | AEP hearing threshold, significance of pairwise comparison against vehicle ([4]; 600 Hz) | AEP hearing threshold, significance of pairwise comparison against vehicle ([4]; 800 Hz) | AEP hearing threshold, significance of pairwise comparison against vehicle ([4]; 1000 Hz) | AEP hearing threshold, significance of pairwise comparison against vehicle ([4]; 1500 Hz) | AEP hearing threshold, significance of pairwise comparison against vehicle ([4]; 3000 Hz) | IC50 [5] [µM] | IC50 [6] [µM] | Relative rate (rate constant divided by the rate constant for [Pt(dien)Cl]^+) (5'-GMP) | Rate constant for the reaction of 5'-GMP with the platinum(II) complex (5'-GMP) | mean (± S.E.) temporary threshold shift (TTS), averaged across frequencies [4] | AEP hearing threshold, significance of pairwise comparison against cisplatin ([4]; 100 Hz) | AEP hearing threshold, significance of pairwise comparison against cisplatin ([4]; 250 Hz) | AEP hearing threshold, significance of pairwise comparison against cisplatin ([4]; 400 Hz) | AEP hearing threshold, significance of pairwise comparison against cisplatin ([4]; 600 Hz) | other results
N.N.[Cl][Pt][Cl] [Cisplatin, cisplatin] | hair cell density reduction in the 5, 25 and 50% regions | 3.11 ± 0.06 | 0.53 ± 0.94 | ns (ns, p > 0.05) | ns (ns, p > 0.05) | **** (**** p ≤ 0.0001) | *** (*** p ≤ 0.001) | *** (*** p ≤ 0.001) | **** (**** p ≤ 0.0001) | **** (**** p ≤ 0.0001) | ns (ns, p > 0.05) | 9.79 ± 0.63 | – | – | – | – | – | – | – | – | saccule hair cell density, % of control ([1]; 5% location along rostral-caudal axis): 69.5 % of control; saccule hair cell density, % of control ([1]; 25% location along rostral-caudal axis): 41.4 % of control; saccule hair cell density, % of control ([1]; 50% location along rostral-caudal axis): 47.7 % of control
[NH3+][Pt-2]([NH3+])([Cl])[n+]1ccccc1 (stereo not shown) [Pyriplatin, pyriplatin] | no hair cell reduction | 66.3 ± 0.74 | 16.1 ± 1.13 | * (* p ≤ 0.05) | ns (ns, p > 0.05) | ns (ns, p > 0.05) | ns (ns, p > 0.05) | ns (ns, p > 0.05) | ns (ns, p > 0.05) | ns (ns, p > 0.05) | ns (ns, p > 0.05) | 89.28 ± 0.46 | 20.9 ± 0.69 | 0.073 | 2.9 (+/- 0.7) x 10^−2 M^-1s^-1 | 6 dB and 6.2 ± 2.1 dB | ns (ns, p > 0.05) | ns (ns, p > 0.05) | ns (ns, p > 0.05) | ns (ns, p > 0.05) | Rate constant for the reaction of 5'-GMP with the platinum(II) complex (5'-GMP; listed as pyriplatin): 2.9 ± 0.7 x 10^−2 M^-1s^-1; AEP hearing threshold, significance of pairwise comparison against cisplatin ([4]; 800 Hz): ns (ns, p > 0.05); AEP hearing threshold, significance of pairwise comparison against cisplatin ([4]; 1000 Hz): ns (ns, p > 0.05); AEP hearing threshold, significance of pairwise comparison against cisplatin ([4]; 1500 Hz): * (* p ≤ 0.05); AEP hearing threshold, significance of pairwise comparison against cisplatin ([4]; 3000 Hz): ns (ns, p > 0.05)
CC[N+]1(CC)CC[NH+]2CC[NH2+][Pt-2]21[Cl] (stereo not shown) [[Pt(Et2dien)Cl]^+, Pt(N,N-diethyldiethylenetriamine)Cl] | no significant reduction in hair cell bundles | – | – | *** (*** p ≤ 0.001) | ns (ns, p > 0.05) | **** (**** p ≤ 0.0001) | **** (**** p ≤ 0.0001) | **** (**** p ≤ 0.0001) | **** (**** p ≤ 0.0001) | ns (ns, p > 0.05) | ** (** p ≤ 0.01) | – | – | 0.00012 | 4.64 ± 0.08 x 10^−5 M^-1s^-1 and 4.64 (+/- 0.08) x 10^−5 M^-1s^-1 | 11.1 ± 2.5 dB | ns (ns, p > 0.05) | ns (ns, p > 0.05) | ns (ns, p > 0.05) | ns (ns, p > 0.05) | AEP hearing threshold, significance of pairwise comparison against cisplatin ([4]; 800 Hz): * (* p ≤ 0.05); AEP hearing threshold, significance of pairwise comparison against cisplatin ([4]; 1000 Hz): ns (ns, p > 0.05); AEP hearing threshold, significance of pairwise comparison against cisplatin ([4]; 1500 Hz): ns (ns, p > 0.05); AEP hearing threshold, significance of pairwise comparison against cisplatin ([4]; 3000 Hz): ns (ns, p > 0.05)
CC[N+]1(CC)CC[NH+]2CC[NH][Pt-2]21[Cl] (stereo not shown) [[Pt(Et2dien)Cl]^+, Pt(N,N-diethyldiethylenetriamine)Cl] | – | 48 ± 11.8 | 7.13 ± 0.98 | – | – | – | – | – | – | – | – | 67.3 ± 0.36 | 72.5 ± 3.37 | – | – | – | – | – | – | – | –
